The values that follow come from patent US20210220408A1, “ARYL HYDROCARBON RECEPTOR ANTAGONISTS AND METHODS OF USE” (Magenta Therapeutics Inc., priority 2018, published 2021).

The pIC50 is −log10 of the IC50, conventionally taken in molar units. Low readings indicate a high IC50, high ones a low IC50.

SMILES strings stand for the structures. pIC50: −log10 of the molar value.

The assay deals with T1, aryl hydrocarbon receptor (AHR) (Homo sapiens, UniProt P35869).
T1 sequence (P35869 11-848): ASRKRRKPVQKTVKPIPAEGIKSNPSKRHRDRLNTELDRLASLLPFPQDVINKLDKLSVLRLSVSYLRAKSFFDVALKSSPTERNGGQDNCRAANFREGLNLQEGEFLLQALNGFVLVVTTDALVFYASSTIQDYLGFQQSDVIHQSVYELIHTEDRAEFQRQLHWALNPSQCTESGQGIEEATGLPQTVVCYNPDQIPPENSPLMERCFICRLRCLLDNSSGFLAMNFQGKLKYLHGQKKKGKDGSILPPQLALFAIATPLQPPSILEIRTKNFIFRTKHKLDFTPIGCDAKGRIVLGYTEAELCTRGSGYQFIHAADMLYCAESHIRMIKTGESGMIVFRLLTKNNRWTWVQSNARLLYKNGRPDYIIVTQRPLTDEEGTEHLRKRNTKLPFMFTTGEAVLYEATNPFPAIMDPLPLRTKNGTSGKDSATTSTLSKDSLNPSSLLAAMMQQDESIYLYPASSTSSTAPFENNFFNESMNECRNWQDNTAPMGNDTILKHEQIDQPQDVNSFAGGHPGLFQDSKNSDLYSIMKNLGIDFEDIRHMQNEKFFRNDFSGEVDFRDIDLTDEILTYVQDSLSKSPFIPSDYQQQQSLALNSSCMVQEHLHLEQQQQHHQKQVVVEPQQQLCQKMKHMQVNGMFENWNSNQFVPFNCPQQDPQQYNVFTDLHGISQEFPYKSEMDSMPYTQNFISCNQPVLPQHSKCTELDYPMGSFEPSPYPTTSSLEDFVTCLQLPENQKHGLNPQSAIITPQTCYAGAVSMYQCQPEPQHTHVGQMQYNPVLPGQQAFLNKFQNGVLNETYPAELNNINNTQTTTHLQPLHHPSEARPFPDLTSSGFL
The experiment in a line: DRE-Luciferase reporter high-throughput screen (AHR antagonist, VAF347-activated). For orientation: Reporter assays use an easily measured gene product as a stand-in for the process of interest.
For `COc1ccc([N+](=O)[O-])cc1-c1ccc(/C=N/Nc2ccccc2)o1` [44B], the pIC50 is 5.70 to 6.00.
On to `C/C(=N\NC(=O)c1ccco1)c1ccc(Cl)c(Cl)c1` [43B], for which the negative-log IC50 (pIC50) was less than 5.70.
To `O=C(c1csc(-c2ccc(Cl)cc2)c1)N1CCCCC1` [148A] belongs 5.70 to 6.00; to `O=C(Nc1ccc(-c2nccs2)cc1)c1ccc(CN2C(=O)CNC2=O)cc1` [10A], 5.70 to 6.00; to `CCCn1ncc(C(=O)Nc2ccc(N3CCCCC3)c(F)c2)c1C` [compound 35], 6.00 to 6.30.
Molecule `O=C(Nc1ccc(N2CCC(C(F)(F)F)CC2)nc1)c1cccc(Cl)c1` [13A] gave a pIC50 of less than 5.70.
`COc1ccc(C(=O)Nc2cccc(F)c2)cc1C` [1B] showed a pIC50 of 5.70 to 6.00.
To `O=C(Cc1ccccc1)Nc1ccc2nc(C(F)(F)F)[nH]c2c1` [111A] belongs 5.70 to 6.00.
To `CCOC(=O)c1cc(-c2ccc(F)cc2)[nH]c1C` [100A] belongs less than 5.70; to `Cc1ccccc1NC(=O)c1cc(-c2cnc(-c3ccccc3)nc2)cn1C` [12B], 5.70 to 6.00; to `O=[N+]([O-])c1cccc(-c2ccc(SCc3ccccc3F)nn2)c1` [48B], 6.00 to 6.30.
To `COc1ccc(C(=O)Nc2cc(C)cc(C)n2)cc1` [9B] belongs 5.70 to 6.00; to `COc1ccc(CC(=O)Nc2ccc(-c3nccs3)cc2)cc1S(=O)(=O)N1CCOCC1` [compound 63], 6.00 to 6.30; to `CSc1nc(-c2ccccc2)nc2[nH]c(-c3ccccc3)cc(=O)c12` [166A], 5.70 to 6.00.
Turning to `O=C(Nc1ccc(-c2cnc(C3CC3)o2)cc1)c1cccc(F)c1` [2A], the negative-log IC50 (pIC50) was less than 5.70.
In turn, `CCCn1cnc(-c2nc(C(=O)Nc3cc(C)ccc3C)c3ccccn23)c1` [46A] gave a negative logarithm of the IC50 (pIC50) of 5.70 to 6.00.
Molecule `COc1ccc(Sc2nccc(N(C)C)c2C#N)cc1` [95A] had a pIC50 of less than 5.70.
Take `CCCCc1ccc(C(=O)Nc2ccccc2O)cc1` [8A]: the pIC50 is less than 5.70.
To `CN(C)c1nc(N2CCN(c3ccc(F)cc3)CC2)cc(C(F)(F)F)n1` [compound 81] belongs 6.30 to 6.70; to `N#Cc1ccccc1COc1ccc(-n2cnnn2)cc1` [compound 154], 6.00 to 6.30.
To `Cc1cccc(-n2ccc(=O)c(C(=O)Nc3ccccc3F)n2)c1` [compound 31] belongs 6.30 to 6.70.
To `CCOC(=O)c1ccc(Nc2nc(=O)c3cccnc3s2)cc1` [196A] belongs less than 5.70; to `COc1ccc(N2CCN(c3cc(C)nn4cnnc34)CC2)cc1` [74A], less than 5.70.
Take `FC(F)(F)c1cnc(-c2cnc(-c3ccccn3)nc2)c(Cl)c1` [compound 87]: the pIC50 was 6.00 to 6.30.
To `Cc1cc(-c2ccccc2)nc2c1/C(=N\O)CC(C)(C)C2` [104B] belongs 6.00 to 6.30; to `CC(C)CCNC(=O)c1cc2c(=O)n(C)c3ccccc3c2s1` [compound 145], 6.00 to 6.30.
To `Cc1nc(NC(=O)c2cc3nc(N(C)C)n(-c4ccccc4)c3s2)sc1C` [49A] belongs 5.70 to 6.00; to `O=C(Nc1nnc(-c2ccc(F)cc2)[nH]1)c1ccc(S(=O)(=O)C(F)F)cc1` [27A], 5.70 to 6.00; to `CCC1CCc2c(sc(NC(=O)c3c(C)noc3C)c2C(N)=O)C1` (centres unmarked) [31B], 5.70 to 6.00.
To `CSc1ccccc1NC(=O)c1ccc(-c2ccccc2)cc1` [4B] belongs less than 5.70; to `CN(C)c1ccnc2sc(C(=O)c3ccccc3)c(N)c12` [106B], greater than 6.70; to `N#Cc1ccc(-c2csc(-c3ccsc3)n2)cc1` [33B], 6.30 to 6.70.
The molecule `Cc1ccc(-c2nnc(-c3ccncc3)[nH]2)c([N+](=O)[O-])c1` [109A] gave a pIC50 of 5.70 to 6.00.
In the case of `O=C(Nc1cccc(F)c1)Nc1ccc2c(c1)C(=O)OC2` [96B], the pIC50 was less than 5.70.
To `COc1ccc(OCCSc2nc3ccc(Br)cc3[nH]2)cc1` [112A] belongs 5.70 to 6.00; to `CCOC(=O)c1sc(NC(=O)c2cn3ccccc3n2)cc1C` [compound 40], greater than 6.70.
The molecule `CNC(=O)c1ccc(CN(C)C(=O)c2ccc(-c3nnc(-c4ccccc4C)o3)cc2)cc1` [140A] had a pIC50 of 5.70 to 6.00.
In the case of `CS(=O)(=O)Nc1cccc(C(=O)Nc2cccc3cccnc23)c1` [36A], the pIC50 was 5.70 to 6.00.
On to `C1=C(c2ccccc2)CCN(c2ccc3nnnn3n2)C1` [compound 110], for which the negative-log IC50 (pIC50) is 6.00 to 6.30.
To `CC(=O)c1csc(COc2cc(Cl)cc(Cl)c2)n1` [55A] belongs 5.70 to 6.00.
Molecule `CC(=O)c1sc(-c2ccc(Oc3ncnc4sccc34)cc2)nc1C` [64A] had a pIC50 of 5.70 to 6.00.
To `COc1ccccc1C(=O)Nc1c(C)cc(C)c2cccnc12` [27B] belongs 5.70 to 6.00; to `Cc1cc(C)n(-c2ccc(NC(=O)c3ccc(OC(F)F)cc3)cc2F)n1` [9A], less than 5.70.
`C#CCn1cnc2c(nnn2-c2ccc(C)c(Cl)c2)c1=O` [178A]: the pIC50 is less than 5.70.
To `Cc1ccc(-c2cc(-c3ccccc3)c3c(N)c(S(C)(=O)=O)sc3n2)cc1` [169A] belongs 5.70 to 6.00; to `CC(=O)c1ccc(C(=O)Nc2ccc(C)cc2Cl)s1` [21A], 5.70 to 6.00; to `COc1c(C(=O)Nc2ccc(Cl)cc2)ccc2ccccc12` [20B], 6.00 to 6.30.
To `COc1ccc(NC(=O)c2noc3c2CC(C)CC3)cc1` (centres unmarked) [30B] belongs 5.70 to 6.00; to `O=C(Nc1cc2ccccc2s1)c1ccccc1` [23B], 5.70 to 6.00; to `CN(/N=C/c1cc(Br)cs1)c1ccc(Cl)nn1` [50B], 6.00 to 6.30.
To `N#Cc1cccnc1Oc1ccc(NC(=O)c2ccc(F)cc2F)cc1` [5A] belongs 5.70 to 6.00; to `CCOc1ccc(-c2ccc(SCC)nn2)cc1` [90A], less than 5.70.
`Cc1noc(C)c1C(=O)Nc1ccc(-c2ccccc2)cc1` [13B] had a pIC50 of 6.00 to 6.30.
To `O=C(NCCc1ccc(Cl)cc1)c1cccc2nsnc12` [107B] belongs 6.30 to 6.70; to `Ic1ccc(-c2cnc(-c3ccncc3)o2)cc1` [76B], 6.30 to 6.70; to `O=C(NCCn1nc(-c2cccs2)ccc1=O)c1cccs1` [194A], less than 5.70.
In turn, `Cc1cc(Cl)ccc1OCc1cn2cccnc2n1` [120A] had a pIC50 of 5.70 to 6.00.
For `C=C(Cc1nnc(C(C)C)s1)c1cn(CCOC)cc2c(=O)n(-c3ccccc3)nc1-2` [175A], the pIC50 was less than 5.70.
To `NC(=O)c1cc(-c2ccc(Cl)s2)nc2ccccc12` [156A] belongs 5.70 to 6.00; to `CCc1nnc(-c2ccc(NC(=O)c3ccccc3OC)cc2)o1` [3A], 5.70 to 6.00.
`CC(=O)c1oc2ccc3c(C)cc(=O)oc3c2c1C` [118B] gave a pIC50 of less than 5.70.
To `COc1ccccc1CNc1[nH]nc2nc(C)cc(C)c12` [123A] belongs 5.70 to 6.00; to `c1ccc(-c2nc(CSc3nncn3-c3ccccc3)co2)cc1` [133A], 5.70 to 6.00; to `CS(=O)(=O)c1ccc(-c2csc(-c3cccs3)n2)cc1` [compound 61], 6.30 to 6.70.
To `Cn1c(N)c(C(=O)CSc2ccc(F)cc2)c(=O)n(C)c1=O` [195A] belongs 5.70 to 6.00; to `Cc1cccnc1NC(=O)c1cc2c(ccc3ccccc32)[nH]1` [51A], 5.70 to 6.00; to `N#Cc1ccc(CSc2ncc3ccccn23)cc1` [115A], 5.70 to 6.00.
To `COc1ccc(NC(=O)CSc2nnc(-c3sc4nc(C)cc(C)c4c3N)o2)cc1` [82B] belongs 6.00 to 6.30.
Molecule `CNc1nc(-c2sc3ncnn3c2C)cs1` [40B] gave a negative-log IC50 (pIC50) of 5.70 to 6.00.
For the molecule `Clc1ccccc1CNc1ccc(-c2nc3ncccc3o2)cc1` [172A], the pIC50 was 5.70 to 6.00.
To `COc1ccc(CC(=O)Nc2ccc(-c3csc(C)n3)cc2)cc1` [143A] belongs less than 5.70.
To `CN(C)c1cccc(-c2nnc(-c3ccc(C(F)(F)F)cc3)[nH]2)c1` [compound 97] belongs 6.30 to 6.70.
To `CCN(CC)c1ncnc2sc(-c3ccccc3)cc12` [170A] belongs 5.70 to 6.00; to `Cc1ccc2cc(NC(=O)c3cccc4c3OC(C)(C)C4)ccc2n1` [50A], less than 5.70; to `CC(=O)N(CCn1nc(C)cc1C)c1nc2c(F)cc(F)cc2s1` [compound 93], 6.30 to 6.70.
As for `CN1/C(=N/c2ccccc2)SCC1(O)c1ccc([N+](=O)[O-])cc1` (centres unmarked) [compound 142], the pIC50 was 6.30 to 6.70.
`Cc1ccc(-n2nnc(-c3ccc(Cl)cc3)n2)cc1` [110A] had a negative logarithm of the IC50 (pIC50) of 5.70 to 6.00.
To `O=C(Nc1nc(-c2ccc(F)cc2)n[nH]1)c1cc(F)cc(F)c1` [14B] belongs 6.00 to 6.30; to `Cc1c(Cl)cccc1NC(=O)c1occc1COc1ccccc1` [19A], 5.70 to 6.00; to `Cc1ccc(N2CC[C@@H]3[C@@H]2CCN3c2ncc(F)cn2)nn1` [181A], 5.70 to 6.00.
To `CC(=O)Nc1cn(-c2ccccc2)nc1-c1ccc(Cl)s1` [55B] belongs 6.00 to 6.30.
`COc1ccc(C2=Nn3c(nc4ccsc4c3=O)SC2)cc1` [126B] gave a pIC50 of 5.70 to 6.00.
To `c1ccc(-c2nc(-c3ccc4c(c3)CCO4)no2)cc1` [85B] belongs 6.00 to 6.30.
